# Where two headings read alike, the source gives them in different places.
# How the values were obtained:
# [1] = Solubility of synthetic glycolipids in hot PBS; type: physicochemical
# Excerpt: In the context of this description the phrase “water soluble” means a stable, single phase system is formed when the synthetic molecule construct is contacted with water or saline (such as PBS) in the absence of organic solvents or detergents, and the term “solution” has a corresponding meaning.
# For use in the transformation of cells the first criterion that synthetic glycolipids must satisfy is that they are soluble in aqueous solvents, e.g. phosphate buffered saline.
# Initial tests on the molecules were to establish solubility and thus eliminate those molecules that were unsuitable for use in the transformation of cells.
# RBCs [2] = assay: Evaluation of insertion of different lipid tails by agglutination with the relevant antisera; type: cell-based; design: scale not given here
# Excerpt: Transformation of RBCs with synthetic glycolipids with different lipid tails was first evaluated (Tables 22 and 24).
# RBCs [3] = assay: Detectable transformation ability of synthetic glycolipids (agglutination); type: cell-based; conditions: agglutination with the appropriate antibody
# Excerpt: The synthetic glycolipid must also be able to insert into the membrane and be recognisable to the appropriate antibody for transformation to be detected by agglutination. Initial tests on the molecules were to establish solubility and thus eliminate those molecules that were unsuitable for use in the transformation of cells.
# [4] = tested on: group O red blood cells (RBCs); assay: Tube serology of group O RBCs transformed at 37° C. with synthetic glycolipids; type: cell-based, human; design: Albaclone anti-A, Tube / Bioclone anti-A, Tube: scale not given here
# Description: (§1) Washed packed group O red blood cells (RBCs) (3 parts by volume) and the synthetic glycolipid solution (1 part by volume, varying concentrations) were added to an eppendorf tube. The tube was incubated in a 37° C. waterbath for one hour, mixing every 15 minutes. […]
# (§2) Tube serology and Diamed gel-card results for RBCs transformed with the different synthetic molecule constructs are provided in Table 38. Results for the stability of the RBCs transformed with the different synthetic glycolipids at different concentrations are provided in Tables 39 to 44.
# [5] = tested on: group O red blood cells (RBCs); assay: Diamed gel-card agglutination of group O RBCs transformed at 37° C. with synthetic glycolipids; type: cell-based, human; design: scale not given here
# Description: as §1, §2
# Mouse RBCs = assay: Tube serology of murine RBCs transformed with H-antigen synthetic glycolipids; type: cell-based; conditions: for H Antisera IgM, Tube: mouse RBCs; for Agglutination, UEA-1: tube serology
# Description: Washed packed mouse RBCs (3 parts by volume) and the synthetic glycolipid solutions (1 part by volume of varying concentrations) were added to an eppendorf tube. The tube was incubated in a 37° C. waterbath for one hour, mixing every 15 minutes. The transformed RBCs were washed 3× with PBS and then suspended in Cellstab™ at the appropriate concentration for serology testing.
# Murine RBCs were washed 3× in 1× PBS. 30 μl of packed RBCs were combined with 30 μl of Hdi-sp-Ad-DOPE (VIII), and 30 μl of packed RBCs were combined with 30 μl Galβ-sp-Ad-DOPE (IX), respectively. Both synthetic molecule constructs were at a concentration of 1.0 mg/ml. 30 μl of 1× PBS was added to 30 μl of packed RBCs to act as the control group. Cells were incubated for 90 minutes in a 37° C. shaking water-bath. RBCs were washed 3× in 1× PBS.
# Three groups of packed RBCs were incubated with an equal volume of lectin UEA-1 for 30 minutes at room temperature. The lectin was prepared in 1× PBS at a concentration of 0.1 mg/ml. 50 μl of a 3% cell suspension was spun for 15 seconds in an Immunofuge at low speed. Results were read by tube serology.
# red blood cells = assay: Association of KODE-fluorescein with cell membranes (fluorescence microscope); type: cell-based
# Excerpt: FIG. 20. Red blood cells following contact with a synthetic molecule construct (XVI) viewed with a fluorescence microscope at 470 nm under 250× magnification.
# A medium to strongly fluorescing cell was considered to indicate a uniform distribution of the molecule across the cell membrane (FIG. 20).
smiles,measurement,setting,value
CCCCCCCCCCCCCCCCCC(=O)OC[C@H](COP(=O)(O)OCCNC(=O)CCCCC(=O)NCCCO[C@@H]1O[C@H](CO)[C@H](O)[C@H](O[C@H]2O[C@H](CO)[C@H](O)[C@H](O)[C@H]2NC(C)=O)[C@H]1O[C@@H]1O[C@@H](C)[C@@H](O)[C@@H](O)[C@@H]1O)OC(=O)CCCCCCCCCCCCCCCCC [Atri-sp-Ad-DSPE (III)],Water solubility,[1]; hot PBS,Yes
same,Agglutination score,"RBCs [2]; 10 μg/mL, Alba anti-A, first series",0
same,Agglutination score,"RBCs [2]; 10 μg/mL, Bio anti-A, first series",0
same,Agglutination score,"RBCs [2]; 20 μg/mL, Alba anti-A, first series",0
same,Agglutination score,"RBCs [2]; 20 μg/mL, Bio anti-A, first series",0
same,Agglutination score,"RBCs [2]; 30 μg/mL, Alba anti-A, first series",0
same,Agglutination score,"RBCs [2]; 30 μg/mL, Bio anti-A, first series",0
same,Agglutination score,"RBCs [2]; 40 μg/mL, Alba anti-A, first series",0
same,Agglutination score,"RBCs [2]; 40 μg/mL, Bio anti-A, first series",0
same,Agglutination score,"RBCs [2]; 50 μg/mL, Alba anti-A, first series",0
same,Agglutination score,"RBCs [2]; 50 μg/mL, Bio anti-A, first series",0
same,Agglutination score,"RBCs [2]; 1000 μg/mL, DBA",0
same,Detectable transformation ability,RBCs [3],Yes
same,"Albaclone anti-A, Tube",[4]; 0.01 mg/mL,0
same,"Bioclone anti-A, Tube",[4]; 0.01 mg/mL,0
same,"Albaclone anti-A, Tube",[4]; 0.02 mg/mL,0
same,"Bioclone anti-A, Tube",[4]; 0.02 mg/mL,0
same,"Albaclone anti-A, Tube",[4]; 0.03 mg/mL,0
same,"Bioclone anti-A, Tube",[4]; 0.03 mg/mL,0
same,"Albaclone anti-A, Tube",[4]; 0.04 mg/mL,0
same,"Bioclone anti-A, Tube",[4]; 0.04 mg/mL,0
same,"Albaclone anti-A, Tube",[4]; 0.05 mg/mL,0
same,"Bioclone anti-A, Tube",[4]; 0.05 mg/mL,0
same,"Albaclone anti-A, Diamed",[5]; 0.01 mg/mL,0
same,"Bioclone anti-A, Diamed",[5]; 0.01 mg/mL,0
same,"Albaclone anti-A, Diamed",[5]; 0.05 mg/mL,0
same,"Bioclone anti-A, Diamed",[5]; 0.05 mg/mL,0
same,"Albaclone anti-A, Diamed",[5]; 0.1 mg/mL,0
same,"Bioclone anti-A, Diamed",[5]; 0.1 mg/mL,0
same,"Albaclone anti-A, Diamed",[5]; 0.25 mg/mL,0
same,"Bioclone anti-A, Diamed",[5]; 0.25 mg/mL,0
CCCCCCCC/C=C\CCCCCCCC(=O)OC[C@H](COP(=O)(O)OCCNC(=O)CCCCC(=O)NCCCO[C@@H]1O[C@H](CO)[C@H](O)[C@H](O)[C@H]1O)OC(=O)CCCCCCC/C=C\CCCCCCCC [Galβ-sp-Ad-DOPE (IX)],Water solubility,[1],Yes
same,Detectable transformation ability,RBCs [3],lack of detectable transformation and No
same,"H Antisera IgM, Tube",Mouse RBCs; 0.01 mg/mL,0
same,"H Antisera IgM, Tube",Mouse RBCs; 0.05 mg/mL,0
same,"H Antisera IgM, Tube",Mouse RBCs; 0.1 mg/mL,0
same,"H Antisera IgM, Tube",Mouse RBCs; 0.25 mg/mL,0
CCCCCCCC/C=C\CCCCCCCC(=O)OC[C@H](COP(=O)(O)OCCNC(=O)CCCCC(=O)NCCCO[C@@H]1O[C@H](CO)[C@H](O)[C@H](O)[C@H]1O)OC(=O)CCCCCCC/C=C\CCCCCCCC [Galβ],"Agglutination, UEA-1","Mouse RBCs; Murine RBC, 1 mg/ml",0
CCCCCCCC/C=C\CCCCCCCC(=O)OC[C@H](COP(=O)(O)OCCNC(=O)CCCCC(=O)NCCCO[C@@H]1O[C@H](CO)[C@H](O)[C@H](O)[C@H]1O[C@@H]1O[C@@H](C)[C@@H](O)[C@@H](O)[C@@H]1O)OC(=O)CCCCCCC/C=C\CCCCCCCC [Hdi-sp-Ad-DOPE (VIII)],Water solubility,[1]; hot PBS,Yes
same,Detectable transformation ability,RBCs [3],lack of detectable transformation and No
same,"H Antisera IgM, Tube",Mouse RBCs; 0.01 mg/mL,0
same,"H Antisera IgM, Tube",Mouse RBCs; 0.05 mg/mL,0
same,"H Antisera IgM, Tube",Mouse RBCs; 0.1 mg/mL,0
same,"H Antisera IgM, Tube",Mouse RBCs; 0.25 mg/mL,0
same,Detection of transformed murine RBCs by anti-H IgM and UEA-1,"Mouse RBCs; 1.0 mg/ml, 37° C. 90 minutes",neither anti-H IgM nor UEA-1 detects
same,"Agglutination, Mouse IgM^H","Mouse RBCs; Murine RBC, 1 mg/ml",0
same,"Agglutination, UEA-1","Mouse RBCs; Murine RBC, 1 mg/ml",0
CCCCCCCCC=CCCCCCCCC(=O)OCC(COP(=O)(O)OCCNC(=O)CCCCC(=O)NCCCCCNC(=S)Nc1ccc(-c2c3ccc(=O)cc-3oc3cc(O)ccc23)c(C(=O)O)c1)OC(=O)CCCCCCCC=CCCCCCCCC (centres unmarked) [KODE-fluorescein (I)],Association with the membrane of red blood cells,red blood cells,readily associates
same,Concentration of dispersion at which insertion is observed,red blood cells,greater than 0.1 mg/ml
same,Period for which incorporation and distribution appears stable,red blood cells; cells stored in the dark,at least 40 days

# Reference: patent US10858384B2, “Synthetic molecule constructs” (KODE BIOTECH LIMITED, priority 2004, dated 2020)
